Measured values taken from patent US20220370385A1, “COMPOSITIONS FOR USE IN INHIBITING SRC KINASE AND TREATING AND PREVENTING ASSOCIATED DISORDERS” (Enzene Biosciences Ltd., priority 2019, published 2022).

Test system: MDA-MB-468 cells
Assay: MDA-MB-468 cell viability, CellTiter-Glo, 24 hrs
Type: cell-based, human
Details: 24 hrs incubation
Method: MDA-MB-468 cells, isolated from a pleural effusion of a patient with metastatic adenocarcinoma of the breast, is a triple negative breast cancer (TNBC) cell line. The IC 50 value of E05 or lapatinib (Sigma) or the structural analogues of E05 were tested in this cell line.
Briefly, MDA-MB-468 cells (ATCC #HTB-32) were seeded with a density of 5,000 cells per well in a 96 well white plate (Costar Cat #3917) in DMEM media supplemented with 10% FBS (assay medium). The plates were incubated at 37° C., 5% CO2 for 24 hr. E05 and analogues were diluted in the assay medium and added to the respective wells of the assay plate. The plates were further incubated at 37° C., 5% CO2 for 24 hrs. After the incubation, the cell viability was assessed using CellTiter-Glo® and the plates were read for luminescence using Cytation 5 (Biotek). The relative luminescence unit (RLU) obtained was plotted against the concentration and EC50 values were estimated using Graphpad Prism 5 software (FIG. 15 and Table 2).

O=C(O)CCc1ccc(O)cc1O [E05_B, 3-(2,4-Hydroxyphenyl)-propionic acid]
Activity (EC50): Inactive

O=C(O)CCc1cccc(O)c1 [E05_C, 3-(3-Hydoxyphenyl)-propionic acid]
Activity (EC50): Inactive
